In patent publication US20260232706A1, “1H-PYRAZOLE ANALOGUES AND METHODS AND USES THEREOF” (University of Manitoba, priority 2022, published 2026):

How the values were obtained:
[1] = test system: neuroblastoma-spinal cord hybrid NSC-34 cells; assay: Neuroprotective effect/cell viability analysis in NSC-34 cells against H2O2 induced oxidative stress; assay type: cell-based; conditions: 250 μM H2O2
Experimental: Methods: The in vitro properties and antioxidant abilities of the synthesized B^5-EDR analogues were assessed in cell-based assays. […] The methodology employed for each of these assays is detailed below.
(iii) Methodology for neuroprotective effect/cell viability analysis in (NSC-34) cells (FIGS. 8A-B): Briefly, NSC-34 cells with about 20 k cells per well in 96 well plates were cultured in a complete medium consisting of high glucose Dulbecco's modified eagle medium (DMEM) (Thermo Fisher Scientific) supplemented with about 10% US-origin fetal bovine serum (Thermo Fisher Scientific), GlutaMAX-1, about 200 mM (100×) (Thermo Fisher Scientific), about 1% 100 mM Sodium pyruvate and about 1% 10,000 U/mL penicillin-streptomycin solution (Thermo Fisher Scientific) for about 20 h to reach confluency of about 70%—about 75%. All the cells were cultured in an incubator with about 5% of CO2 at about 37° C. About 20 kcells/100 μl/well were seeded in 96 well plates for about 20 h in triplicates. […] After about 1 h, the cells were treated with 250 μM of H2O2 for about 2 h. After a total period of about 3 h, about 10 μl of WST-8 reagent was added in each well and the absorbance readings were recorded after about 2.5 h at about 450 nm. All the experiments were repeated at least three times and measurements were run in triplicates.

WG37R mice = assay: 14-day acute toxicity assessment in WG37R mice; assay type: in vivo; conditions: for H&E histology compared with control mice / signs of overt degeneration, inflammation and necrosis in examined tissues: single IP 10 mg/kg
Experimental: The WG37R mice were randomly assigned to 2 groups: For the first set of the experiment, a total of 6 animals per group (3 male and 3 female) were used in the study. Group 1: Sham treatment 1 (1:20 DMSO/PBS) and Group 2: NS-1-2 (10 mg/kg body weight). According to requirement of acute toxicity study, 6-10 animals should be used to evaluate the effect of a substance. However, as the new analogues are structurally similar to Edaravone, having a single-dose safety profile of 450 mg/kg, the mortality of the Edaravone analogues at a dose of 10 mg/kg body weight/day was not expected. Considering the above facts, for the present acute study, the minimum number of animals was 6 per group. Morphological alterations, histological changes, and mean body weight assessments for whole set of animals, for both the WG37R control groups (N=6; 1:20, DMSO:PBS) and WG37R treated groups (N=6; NS-1-2; 10 mg/kg bodyweight) were assessed during the 14-day acute toxicity assessment, by giving a single IP injection to the mouse at 2 months of age (see further detail in (iia) below.
For intraperitoneal administration, about 1:20 of DMSO/PBS, at a pH of about 7.4 was used for the suspension of NS-1-2 test substance. Edaravone was dissolved in about 1 mL of about 1 mol/L NaOH and adjusted to about pH 7.4 by adding about 1 mol/L HCl, and then diluted in saline. A volume of about 400 μl from final reconstituted solution was aliquoted and stored in about −80° C., until further use. For acute toxicity experiments, a single dose of about 10 mg/kg bodyweight of NS-1-2 was intraperitoneally injected to group 2, WG37R mice model at the age of 2 months. The WG37R mice in the group 1 received an injection of equal volume of (about 1:20; DMSO:PBS) instead. For chronic toxicity experiments, 120 daily doses of about 10 mg/kg bodyweight of NS-1-2 was intraperitoneally injected to group 4, WG37R mice model at the age of 3 months for 120 days, until the age of 7 months. The WG37R mice in the group 3 received an injection of equal volume of (about 1:20; DMSO:PBS) instead.
Wild type (WT) G37R mice received a single dose (about 0.2 mls) IP injection of Sham suspended in (about 1:20; DMSO:PBS) and a single dose of about 10 mg/kg bodyweight (about 0.2 mls) IP injection of NS-1-2 suspended in about 1:20; DMSO:PBS at the age of 2 months. […] At the experimental endpoint, the mice were first deeply anesthetized with a mixture of about 20% v/v isoflurane/propylene glycol (about 1 ml of the mixture per about 500 ml of bell jar space, University of Manitoba animal care SOP A003) and than exsanguination was done by cutting the animal's right atrium followed by an intracardiac perfusion with about 0.9% NaCl. During perfusion, syringe barrel nosecone was used for prolonged anesthesia. Cardiac perfusion was followed by perfusion with about 4% paraformaldehyde for histology (H&E staining) analysis. Mouse tissues (brain, heart, spinal cord, kidney, liver, muscle, lung, and spleen) were fixed for about 48 h in about 4% buffered formalin at about 4° C. Only the spinal cord was processed after about 24 h to remove the spine and again fixed for about another 24 h. Samples were processed and embedded into paraffin blocks at the Histomorphology and Ultrastructural Imaging platform, Dept. of Human Anatomy and Cell Science, University of Manitoba. Briefly, the embedded tissues were cut into about 5 μm thickness, mounted on super frost plus slides and dried overnight at about 37° C. Slides were deparaffinized in about 2 changes of xylene and rehydrated in descending alcohols (about 2 changes of about 100% Ethanol and about 2 changes of about 95% Ethanol) and tap water. Slides were stained with Harris Haematoxylin followed by differentiation with acid alcohol. After rinsing in tap water, saturated lithium carbonate was used for Bluing the nucleus. After that the slides were rinsed in tap water and counter stained with eosin. […]

[2] = test system: neuroblastoma-spinal cord hybrid NSC-34 cells; assay: Neuroprotective effect/cell viability analysis in NSC-34 cells against H2O2 induced oxidative stress; assay type: cell-based; conditions: prophylactic treatment, 250 μM H2O2, FIG. 7A
[3] = single 10 mg/kg IP dose, 2 weeks monitoring

## Cc1cc(B2OC(C)(C)C(C)(C)O2)n(-c2ccccc2)n1 [NS-1-2, 3-methyl-5-(4,4,5,5-tetramethyl-1,3,2-dioxaborolan-2-yl)-1-phenyl1H-pyrazole]
[1]; 1 μM
  neuroprotection in scavenging neurotoxic effects of H2O2 compared to EDR: better neuroprotection
[1]; 25 μM
  neuroprotection in scavenging neurotoxic effects of H2O2 compared to EDR: better neuroprotection
[1]; 50 μM dose
  viability compared to EDR: almost equal viability
WG37R mice; G37RWT female mice, FIG. 13
  H&E histology compared with control mice: no significant differences with respect to control mice
  signs of overt degeneration, inflammation and necrosis in examined tissues: no signs of overt degeneration, inflammation and necrosis
WG37R mice; G37RWT male mice, FIG. 12
  H&E histology compared with control mice: no significant differences with respect to control mice
  signs of overt degeneration, inflammation and necrosis in examined tissues: no signs of overt degeneration, inflammation and necrosis
WG37R mice; acute treatment, 10 mg/kg, FIG. 10
  changes in body weight: did not induce any abnormal changes in the body weight
WG37R mice; [3]
  daily general observations: normal appearance, normal general behaviour with well-conditioned body condition
  treatment-related deaths: No acute treatment-related deaths
[2]
  protection from loss of cell viability induced by H2O2: protected NSC-34 cells from loss of cell viability
